The first assay addresses NAD synthetase (Bacillus subtilis, UniProt P08164). The assay is described as follows: NAD synthetase coupled enzyme assay. In kind it is biochemical.
Conditions: not given
An excerpt:
This Example illustrates the NAD synthetase enzyme inhibiting activity of some compounds of the present invention. [drawing 48] The coupled assay—production of NAD was monitored through conversion to NADH by alcohol dehydrogenase. [NADH] was monitored by 2 parallel methods: the change in absorbance at 340 nm, and fluorescence at 460 nm (excitation 320 nm). […] Controls were included for determining inhibitor background, precipitation, and ADH inhibition.
Sequence of NAD synthetase (P08164 whole entry): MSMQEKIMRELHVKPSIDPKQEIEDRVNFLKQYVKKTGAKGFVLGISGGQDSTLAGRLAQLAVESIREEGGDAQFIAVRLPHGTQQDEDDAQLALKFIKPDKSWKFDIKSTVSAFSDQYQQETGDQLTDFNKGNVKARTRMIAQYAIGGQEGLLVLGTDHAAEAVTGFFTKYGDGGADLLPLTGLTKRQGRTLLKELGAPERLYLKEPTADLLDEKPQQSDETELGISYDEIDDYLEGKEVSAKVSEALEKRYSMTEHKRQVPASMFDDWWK
As usually defined, the IC50 is the concentration that gives 50% inhibition. A low value points to greater potency. `N=C(N)N[C@H](COCCCCCCCCOc1ccc(OCc2ccccc2)cc1)Cc1ccccc1` [Compound 1679] registered an IC50 of 10.4 µM.

The same assay, now with this note: NAD synthetase 2.0 μg/mL; 0.1 mM NaAD; 0.2 mM ATP; pH 8.5.
The compound `C[N+](C)(C)c1ccc(CC(=O)NCCCCCCCCOc2ccc(OC(=O)c3cccc(Cl)c3)cc2)cc1` [Compound 1623] returned an IC50 of 33.9 µM.
The same measure, in the same setting: under `C[N+]1([C@@H](Cc2ccccc2)C(=O)OCCCCCCCCOc2ccc(OCc3ccccc3)cc2)CCCCC1` [Compound 1337] stands 20.3 µM.
`C[N+](C)(C)c1ccc(CC(=O)NCCCCCCCCOc2ccc(OC(=O)c3cc(Cl)cc(Cl)c3)cc2)cc1` [Compound 1637]: 23.3 µM corresponded to half-maximal inhibition (IC50).
The same measure, in the same setting: under `CC(C)Oc1ccc(C(=O)Oc2ccc(OCCCCCCCCNC(=O)Cc3ccc([N+](C)(C)C)cc3)cc2)cc1` [Compound 1629] stands 21.1 µM.
With `C[n+]1cccc(C(=O)NCCCCCCCCOc2ccc(OCc3cccc(Cl)c3)cc2)c1` [Compound 1422], the IC50 came to 27.9 µM.
Turning to `C[N+](C)(C)C(Cc1ccccc1)C(=O)OCCCCCCCn1ccc2cc(OCc3ccccc3)ccc21` (centres unmarked) [Compound 1408], the IC50 came to 30.5 µM.
With `C[N+](C)(C)c1ccc(CCCC(=O)OCCCCCCCCOc2ccc(OCc3ccccc3)cc2)cc1` [Compound 1264], half-maximal inhibition (IC50) required 38.1 µM.
`C[N+](C)(C)C(Cc1ccccc1)C(=O)NCCCCCCCCOc1ccc(OC(=O)c2cc(Cl)cc(Cl)c2Cl)cc1` (centres unmarked) [Compound 1615] displayed an IC50 of 22.3 µM.
`C[N+](C)(C)c1ccc(CC(=O)OCCCCCCCCCOc2ccc(OCc3ccccc3)cc2)cc1` [Compound 1321] registered an IC50 of 22 µM.
Same read-out and setting: under `C[N+](C)(C)C(Cc1ccccc1)C(=O)OCCCCCCCCOc1ccc(OC(=O)c2ccc(S(N)(=O)=O)cc2)cc1` (centres unmarked) [Compound 1485] stands 34.8 µM; under `C[N+](C)(C)c1ccc(CC(=O)OCCCCCCCCn2ccc3cccc(OCc4ccccc4)c32)cc1` [Compound 1127], 23 µM; under `CC(C)Oc1ccc(C(=O)Oc2ccc(OCCCCCCCCOC(=O)C(Cc3ccccc3)[N+](C)(C)C)cc2)cc1` (centres unmarked) [Compound 1477], 14 µM.
On the same count and under the same terms, with `CC[N+]1([C@@H](Cc2ccccc2)C(=O)NCCCCCCCCOc2ccc(OCc3ccccc3)cc2)CCCC1` [Compound 1501] the figure was 38.2 µM; with `C[N+](C)(C)c1ccc(CC(=O)OCCCCCCCCOc2cccc(OCc3ccccc3)c2)cc1` [Compound 1169], 36.2 µM.
`CCC[N+]1([C@@H](Cc2ccccc2)C(=O)NCCCCCCCCOc2ccc(OCc3ccccc3)cc2)CCCC1` [Compound 1502] displayed an IC50 of 35.6 µM.
On to `CSc1ccc(C(=O)Oc2ccc(OCCCCCCCCOC(=O)C(Cc3ccccc3)[N+](C)(C)C)cc2)cc1` (centres unmarked) [Compound 1478], for which half-maximal inhibition (IC50) was put at 15.8 µM.
On the same count and under the same terms, with `C[n+]1cccc(C(=O)NCCCCCCCCOc2ccc(OC(=O)c3cc(F)c(F)c(F)c3)cc2)c1` [Compound 1678] the figure was 36.5 µM; with `C[N+](C)(C)C(Cc1ccccc1)C(=O)NCCCCCCCCOc1ccc(OC(=O)c2cc(F)ccc2F)cc1` (centres unmarked) [Compound 1611], 23.3 µM; with `COC(=O)c1ccc(OCCCCCCCCOC(=O)Cc2ccc([N+](C)(C)C)cc2)cc1OCc1ccccc1` [Compound 1186], 46.1 µM.
Turning to `CN(CCCCCCCCOc1ccc(OCc2ccccc2)cc1)C[C@H](Cc1ccccc1)[N+](C)(C)C` [Compound 1499], the IC50 was 26.8 µM.
`C[N+](C)(C)c1ccc(CC(=O)OCCCCCCCCOc2ccc(OCc3cccc(Cl)c3)cc2)cc1` [Compound 1397]: the IC50 worked out at 16.9 µM.
`N=C(N)N[C@@H](Cc1ccccc1)C(=O)NCCCCCCCCOc1ccc(OCc2ccccc2)cc1` [Compound 1681]: the IC50 was 12.9 µM.
The same measure, in the same setting: under `C[N+](C)(C1CCOCC1)[C@@H](Cc1ccccc1)C(=O)OCCCCCCCCOc1ccc(OCc2ccccc2)cc1` [Compound 1358] stands 46.6 µM; under `C[N+](C)(C)C(Cc1ccccc1)C(=O)NCCCCCCCCOc1ccc(OC(=O)c2ccc(Cl)cc2Cl)cc1` (centres unmarked) [Compound 1604], 21.1 µM.
For the compound `C[N+](C)(C)c1ccc(CC(=O)NCCCCCCCCOc2ccc(OC(=O)c3c(Cl)cccc3Cl)cc2)cc1` [Compound 1635], it took 35.1 µM to reach half-maximal inhibition (IC50).

These data come from patent US6861448B2, “NAD synthetase inhibitors and uses thereof” (priority 1998, dated 2005).
